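Following 48 hours of exposure in 96-well plates, responses at five concentrations were used to interpolate endpoints linearly. Abbreviation: GI50, concentration required for 50% inhibition of growth. TGI: concentration producing complete growth inhibition.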
Experiments:
Assay in all cases: DTP human tumour cell line panel, 48 h
OVCAR-5 ovarian = test system: OVCAR-5 ovarian
HCT-116 colon = test system: HCT-116 colon
LOX IMVI melanoma = test system: LOX IMVI melanoma
CAKI-1 renal = test system: CAKI-1 renal
HOP-92 NSCLC = test system: HOP-92 NSCLC
UACC-62 melanoma = test system: UACC-62 melanoma
U251 CNS = test system: U251 CNS
RPMI-8226 leukemia = test system: RPMI-8226 leukemia
NCI-H522 lung = test system: NCI-H522 lung
OVCAR-4 ovarian = test system: OVCAR-4 ovarian

Row | SMILES | TGI (OVCAR-5 ovarian) | TGI (HCT-116 colon) | TGI (LOX IMVI melanoma) | TGI (CAKI-1 renal) | TGI (HOP-92 NSCLC) | TGI (UACC-62 melanoma) | TGI (U251 CNS) | TGI (RPMI-8226 leukemia) | TGI (NCI-H522 lung) | TGI (OVCAR-4 ovarian) | GI50 (OVCAR-5 ovarian) | GI50 (HCT-116 colon) | GI50 (LOX IMVI melanoma) | GI50 (CAKI-1 renal) | GI50 (HOP-92 NSCLC) | GI50 (UACC-62 melanoma) | GI50 (U251 CNS) | GI50 (RPMI-8226 leukemia) | GI50 (NCI-H522 lung) | GI50 (OVCAR-4 ovarian)
1 | COc1nc(N)c(NC2OC(CO)C(O)C2O)c(=O)[nH]1 (stereo not drawn) | > 100 µM | > 100 µM | > 100 µM | > 100 µM | > 100 µM | > 100 µM | > 100 µM | > 100 µM | > 100 µM | > 100 µM |  |  |  |  |  |  |  |  |  | 
2 | CCCN(C(=O)c1c(Cl)nnc(Cl)c1C(=O)c1cc(Cl)nnc1Cl)c1cc(Cl)nnc1Cl | 41.2 µM | 19.6 µM | 18.5 µM | 22.3 µM | 36.9 µM | 24.9 µM | 33.3 µM | 17.1 µM | 13.3 µM | 38.1 µM |  |  |  |  |  |  |  |  |  | 
3 | COC(=O)C1C(OC(=O)c2ccccc2)CC2CCC1N2C(N)=O (stereo not drawn) | > 100 µM | > 100 µM | > 100 µM | > 100 µM | > 100 µM | > 100 µM | > 100 µM | > 100 µM | > 100 µM | > 100 µM |  |  |  |  |  |  |  |  |  | 
4 | CN(/N=C(\C(=O)O)c1ccccc1)C1=NCCCN1 | > 100 µM | > 100 µM | > 100 µM | > 100 µM | > 100 µM | > 100 µM | > 100 µM | > 100 µM | > 100 µM | > 100 µM |  |  |  |  |  |  |  |  |  | 
5 | O=C(CN1CCNCCN(CC(=O)N2CCCCC2)CCNCC1)N1CCCCC1 | > 100 µM | > 100 µM | > 100 µM | > 100 µM | > 100 µM | > 100 µM | > 100 µM | > 100 µM | > 100 µM | > 100 µM |  |  |  |  |  |  |  |  |  | 
6 | CCC(NC(C)c1ccccc1)C(O)c1ccc(OCc2ccccc2)c(OCc2ccccc2)c1 (stereo not drawn) | 26.3 µM | 27.7 µM | 26.3 µM | 24.4 µM | 16.7 µM | 33.7 µM | 27.7 µM | 10.7 µM | 35.1 µM | 33.5 µM |  |  |  |  |  |  |  |  |  | 
7 | Fc1ccc2nc3n(c2c1)C(c1c(F)cccc1F)SC3 (stereo not drawn) | > 100 µM | > 100 µM | > 100 µM | > 100 µM | > 100 µM | > 100 µM | > 100 µM | > 100 µM | > 100 µM | > 100 µM |  |  |  |  |  |  |  |  |  | 
8 | COC(=O)c1c2n(c3ccccc13)C[C@H]1OC(C)(C)O[C@@H]21 | > 100 µM | > 100 µM | > 100 µM | > 100 µM | > 100 µM | > 100 µM | > 100 µM | > 100 µM | > 100 µM | > 100 µM |  |  |  |  |  |  |  |  |  | 
9 | COc1cc(OC)c(OC)cc1/C=N/N=C(\N)NO | > 100 µM | > 100 µM | > 100 µM | > 100 µM | > 100 µM | > 100 µM | > 100 µM | > 100 µM | > 100 µM | > 100 µM |  |  |  |  |  |  |  |  |  | 
10 | CN(CCO)c1nc2c(c(=O)[nH]1)CCC2 | > 100 µM | > 100 µM | > 100 µM | > 100 µM | > 100 µM | > 100 µM | > 100 µM | > 100 µM | > 100 µM | > 100 µM |  |  |  |  |  |  |  |  |  | 
11 | COCn1c2ccc(OC(C)=O)cc2c2c(=O)oc(N(C)C)nc21 | > 100 µM | > 100 µM | > 100 µM | > 100 µM | > 100 µM | > 100 µM | > 100 µM | > 100 µM | > 100 µM | > 100 µM |  |  |  |  |  |  |  |  |  | 
12 | O=C(NCc1cccnc1)NCc1cccnc1 | > 100 µM | > 100 µM | > 100 µM | > 100 µM | > 100 µM | > 100 µM | > 100 µM | > 100 µM | > 100 µM | > 100 µM |  |  |  |  |  |  |  |  |  | 
13 | O=C(O[C@H]1[C@@H](O)[C@H](n2cnc3c(Cl)ncnc32)O[C@@H]1COC(c1ccccc1)(c1ccccc1)c1ccccc1)c1ccccc1 | > 100 µM | > 100 µM | > 100 µM | 10.1 µM | 44.8 µM | > 100 µM | 59.2 µM | 5.39 µM | 91.5 µM | > 100 µM |  |  |  |  |  |  |  |  |  | 
14 | Cc1ccccc1N=Nc1ccc(N=Nc2c(O)ccc3ccccc23)c(C)c1 | > 100 µM | > 100 µM | > 100 µM | > 100 µM | > 100 µM | > 100 µM | > 100 µM | > 100 µM | > 100 µM | > 100 µM |  |  |  |  |  |  |  |  |  | 
15 | C[C@@H]1CC[C@H]2C(COCCOCC3=C(C(F)(F)F)O[C@@H]4O[C@@]5(C)CC[C@H]6[C@H](C)CC[C@@H]3[C@@]46OO5)=C(C(F)(F)F)O[C@@H]3O[C@@]4(C)CC[C@@H]1[C@]32OO4 | > 20 µM | > 100 µM |  | > 12.9 µM | > 100 µM | > 100 µM | 0.178 µM |  | > 100 µM | > 100 µM | > 4.64 µM | 0.0243 µM | 0.0641 µM | 0.304 µM | 0.0679 µM | 0.141 µM | < 0.01 µM | < 0.0139 µM | 2.9 µM | > 100 µM
16 | O=c1oc2ccccc2c(Nc2ccc3c(c2)S(=O)(=O)c2ccccc2O3)c1[N+](=O)[O-] | > 100 µM | 65 µM | > 100 µM | 51.3 µM | 55.9 µM | 40 µM | 42.1 µM | 59.8 µM | 42.9 µM | 73.5 µM |  |  |  |  |  |  |  |  |  | 

Source: PubChem BioAssay (NCI)
